Measured values published in PMC5872666, “Stimulation of Dectin-1 and Dectin-2 during Parenteral Immunization, but Not Mincle, Induces Secretory IgA in Intestinal Mucosa” (Journal of Immunology Research, 2018).

Molecular target: T1, ovalbumin (OVA) (Gallus gallus, UniProt P01012)
T1 construct: gene SERPINB14; amine-coupled to CM5 chip
T1 sequence (P01012 2-386): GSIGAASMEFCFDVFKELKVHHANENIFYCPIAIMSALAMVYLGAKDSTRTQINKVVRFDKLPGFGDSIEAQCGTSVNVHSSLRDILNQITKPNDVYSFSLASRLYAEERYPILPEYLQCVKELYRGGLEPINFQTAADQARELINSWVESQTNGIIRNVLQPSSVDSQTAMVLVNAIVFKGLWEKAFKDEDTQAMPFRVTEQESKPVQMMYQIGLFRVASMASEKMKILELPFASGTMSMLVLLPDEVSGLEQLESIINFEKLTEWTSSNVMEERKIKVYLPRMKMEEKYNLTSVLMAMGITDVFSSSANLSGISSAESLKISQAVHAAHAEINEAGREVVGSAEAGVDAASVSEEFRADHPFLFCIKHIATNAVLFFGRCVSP
Assay: SPR, Biacore […]
Format: binding

Compound `CCCCCCCCCCCCCCCCCCCCCC(=O)OC[C@H]1O[C@H](O[C@H]2O[C@H](COC(=O)CCCCCCCCCCCCCCCCCCCCC)[C@@H](O)[C@H](O)[C@H]2O)[C@H](O)[C@@H](O)[C@@H]1O` [TDB] has a Kd of 0.235 nM.
